Measurements reported in BindingDB's records for PubMed 8391122 (Merck Sharp & Dohme Research Laboratories, 1993).

Columns and labels:
[1] = target: T1, Gamma-aminobutyric acid receptor subunit alpha-5 (Homo sapiens, UniProt P31644)
T1 sequence (P31644 whole entry): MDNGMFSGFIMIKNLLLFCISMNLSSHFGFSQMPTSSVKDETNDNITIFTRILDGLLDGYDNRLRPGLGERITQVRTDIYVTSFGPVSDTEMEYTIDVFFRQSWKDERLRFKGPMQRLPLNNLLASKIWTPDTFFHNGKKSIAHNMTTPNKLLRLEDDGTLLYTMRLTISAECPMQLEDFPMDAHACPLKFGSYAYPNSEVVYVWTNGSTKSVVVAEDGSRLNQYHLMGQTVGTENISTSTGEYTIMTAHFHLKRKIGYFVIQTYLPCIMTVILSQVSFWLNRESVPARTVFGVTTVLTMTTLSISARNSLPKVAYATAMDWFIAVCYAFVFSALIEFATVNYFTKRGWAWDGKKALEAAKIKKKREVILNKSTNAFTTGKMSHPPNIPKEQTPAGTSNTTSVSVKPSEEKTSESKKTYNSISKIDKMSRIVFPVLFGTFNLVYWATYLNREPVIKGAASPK

[2] = target: T2, Gamma-aminobutyric acid receptor subunit alpha-2 (Homo sapiens, UniProt P47869)
T2 sequence (P47869 whole entry): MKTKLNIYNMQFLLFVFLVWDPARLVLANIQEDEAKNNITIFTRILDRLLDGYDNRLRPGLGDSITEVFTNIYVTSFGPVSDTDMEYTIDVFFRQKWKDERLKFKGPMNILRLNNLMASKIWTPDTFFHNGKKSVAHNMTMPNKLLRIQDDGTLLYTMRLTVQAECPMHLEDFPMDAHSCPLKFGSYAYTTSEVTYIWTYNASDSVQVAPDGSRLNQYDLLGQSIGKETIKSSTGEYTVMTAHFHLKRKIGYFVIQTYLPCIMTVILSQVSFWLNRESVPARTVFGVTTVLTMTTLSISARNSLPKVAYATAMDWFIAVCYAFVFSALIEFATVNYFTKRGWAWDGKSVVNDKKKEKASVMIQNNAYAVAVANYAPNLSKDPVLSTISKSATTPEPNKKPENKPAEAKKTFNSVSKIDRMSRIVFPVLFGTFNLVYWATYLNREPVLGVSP

[3] = target: T3, Gamma-aminobutyric acid receptor subunit alpha-1 (Homo sapiens, UniProt P14867)
T3 sequence (P14867 whole entry): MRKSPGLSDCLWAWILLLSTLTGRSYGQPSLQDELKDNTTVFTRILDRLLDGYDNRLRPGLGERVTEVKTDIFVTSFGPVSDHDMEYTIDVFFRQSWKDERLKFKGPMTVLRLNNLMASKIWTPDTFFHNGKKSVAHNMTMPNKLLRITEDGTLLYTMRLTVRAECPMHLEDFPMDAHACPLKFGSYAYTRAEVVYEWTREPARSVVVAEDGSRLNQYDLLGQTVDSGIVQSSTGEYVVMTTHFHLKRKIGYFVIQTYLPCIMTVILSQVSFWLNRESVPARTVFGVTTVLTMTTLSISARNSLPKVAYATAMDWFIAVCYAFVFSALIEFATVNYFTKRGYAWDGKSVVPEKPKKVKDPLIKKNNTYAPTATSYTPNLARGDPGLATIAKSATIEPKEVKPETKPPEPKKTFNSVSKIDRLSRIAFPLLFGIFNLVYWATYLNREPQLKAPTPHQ

[4] = target: T4, Gamma-aminobutyric acid receptor subunit alpha-3 (Homo sapiens, UniProt P34903)
T4 sequence (P34903 whole entry): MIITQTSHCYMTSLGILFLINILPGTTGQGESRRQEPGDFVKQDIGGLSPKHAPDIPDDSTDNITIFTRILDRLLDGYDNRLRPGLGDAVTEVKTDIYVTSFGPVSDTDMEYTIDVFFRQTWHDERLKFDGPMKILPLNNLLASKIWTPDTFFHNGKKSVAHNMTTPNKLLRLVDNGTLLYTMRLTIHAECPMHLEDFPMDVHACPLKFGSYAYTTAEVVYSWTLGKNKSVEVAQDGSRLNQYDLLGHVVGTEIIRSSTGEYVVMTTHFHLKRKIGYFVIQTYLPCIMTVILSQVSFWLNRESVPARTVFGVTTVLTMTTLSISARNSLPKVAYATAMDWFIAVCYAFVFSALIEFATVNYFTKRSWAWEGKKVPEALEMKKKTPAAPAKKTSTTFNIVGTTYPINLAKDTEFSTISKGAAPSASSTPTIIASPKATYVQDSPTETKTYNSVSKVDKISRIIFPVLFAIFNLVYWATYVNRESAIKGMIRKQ

SMILES	Ki [1] [nM]	Ki [2] [nM]	Ki [3] [nM]	Ki [4] [nM]
Cc1nnc2ccc(-c3cccc(C(F)(F)F)c3)nn12	1150	2900	290	3140
COC(=O)c1cc2c(cn1)[nH]c1ccccc12	76.4	6.5	2.2	9.2
COCc1c(C(=O)OC(C)C)ncc2[nH]c3ccc(OCc4ccccc4)cc3c12	8.4	4.4		7.1
CC(C)(C)OC(=O)c1ncn2c1C1CCCN1C(=O)c1c(Br)cccc1-2 (stereo not given) [8-Bromo-7-oxo-3b,4,5,6-tetrahydro-7H-2,6a,11b-triaza-benzo[g]cyclopenta[e]azulene-3-carboxylic acid tert-butyl ester]	2.4	1.2	1.2	1.3
Cc1ccc(-c2nc3ccc(C)cn3c2CC(=O)N(C)C)cc1 [Ambien]	> 10000			
CC(C)c1nc(-c2ncn3c2CN(C)C(=O)c2c(Cl)cccc2-3)no1 [FG 8205]	6.4	3.7	2.3	6.4
Cc1nnc2n1-c1ccc(Cl)cc1C(c1ccccc1Cl)=NC2 [Halcion]				3
CCOC(=O)c1ncn2c1CN(C)C(=O)c1cc(N=[N+]=[N-])ccc1-2 [RO-154513]	0.7	10.4	10	7.8
